Assay results published in patent US6242425A, “Quinolinone glycoside, production process, and anti-allergic agent” (Dainippon Ink and Chemicals, Inc., priority 1998, dated 2001).

Columns and labels:
[1] = tested on: homologous passive cutaneous anaphylaxis (PCA) reaction in rats; test: Effect on homologous passive cutaneous anaphylaxis (PCA) reaction in rats; assay type: in vivo, rat (male wistar rats); conditions: vs vehicle control
Protocol: Effect on homologous passive cutaneous anaphylaxis (PCA) reaction in rats
This experimental animal model is caused by immediate type allergic reaction, namely, antigen-antibody reaction. In the following, the method of this pharmacological test will be explained.
Method: Male wistar rats (9 weeks old) were intradermally administered 0.05 ml of anti-serum against dinitrophenylated ascaris (DNP-As) into two sites on the shaved dorsal skin. 48 hours later, glycosyloxyquinolinone derivatives (test compounds) suspended in 0.5% methylcellulose (MC) were given i.v. at a dose of 0.5 mg/kg to the animals. 1 hour after administration of Test compounds, the animals were induced anaphylaxis by injection of saline (1 ml) dissolving 1 mg of trinitrophenylated ascaris (TNP-As) and 5 mg of Evans Blue into the tail vein of the animals. 30 minutes after induction of anaphylaxis, animals were anesthetized by ether and killed by bleeding, and were flayed dorsal skin. The leakage of dye was assessed by measuring the diameter (mean of shortest and longest diameter) of the blue spot on the inside surface of dorsal skin. As vehicle control group, only 0.5% MC solution was administered orally, and as positive control group, Tranilast suspended in 0.5% MC were administered orally at a dose of 100 mg/kg to the animals with the same method as the test compounds groups. Each experimental group consisted of 5 rats.
In the conditions of this experiment, it was considered that the compound, which inhibited PCA reaction by over forty (40) percent against that in vehicle control group, was evidently effective for immediate type allergy.
(§1) Inhibition (%)=(A-B)/A×100
A: leakage of dye in vehicle control group
B: leakage of dye in test compound group or positive control group

[2] = tested on: immediate type asthmatic response; test: Effect on experimental immediate type asthma model in guinea pigs (airway resistance); assay type: in vivo, guinea pig (male hartley guinea pigs); conditions: airway resistance 1 minute after challenge
From the text: (§2) Effect on experimental immediate and delayed type asthma model in guinea pigs
(§3) The asthma is typical allergic disease and we carried out this pharmacological test by experimental asthmatic model in guinea pigs in order to confirm that the compounds of the present invention, compound 14, 16, 20, 26 and 32, suppress immediate and delayed type asthmatic response. In the following, the method of the pharmacological test will be explained.
(§4) Method: Male hartley guinea pigs were sensitized by exposured aerosolized ovalbumine (OVA) (1% in saline) for 10 minutes per a day at eight times. The aerosol was generated by an ultrasonic nebulizer (NE-U12, Omron inc.). One week after final sensitization, the animals were challenged with inhalation of OVA (2% in saline) for 5 minutes. The animals were pretreated with metyrapone (10 mg/kg, i.v.) at 1 and 4 hours before the challenge, and pyrilamine (10 mg/kg, i.p.) at 30 minutes before the challenge. airway resistance in the conscious animals were measured for 1 minute with PULMOS-1 (made in Medical Interface Project Station Inc.) at 1 minute, 2, 4, 5, 6, 7, 8 and 23 to 24 hours after the challenge. Compound 14, 16, 20, 26 and 32 (test compound) suspended in 0.5% methylcellulose (MC) solution were given i.v. at doses of 0.2 and 0.5 mg/kg 1 hour before and 3 hours after the challenge. As a positive control group, Prednisolone was given orally at a dose of 10 mg/kg 2 hours and 16 hours before the challenge. As vehicle control group, only 0.5% MC solution was given orally.
(§5) The evaluation of the effect of the compounds on immediate and delayed type asthmatic response was undertaken with percentage of change in airway resistance 1 minute after the challenge and the area under the response curve for percentage of change in airway resistance between 4 and 8 hours after the challenge, respectively.
(§6) The inhibition (%) of the compounds for immediate and delayed type asthmatic response was calculated according to equation 2 and the result was shown in table 2. Each experimental group consisted of 8 guinea pigs.
as §1
(§7) A: percentage of change in airway resistance in vehicle control group
(§8) B: percentage of change in airway resistance in test compound group or positive control group

[3] = tested on: delayed type asthmatic response; test: Effect on experimental delayed type asthma model in guinea pigs (airway resistance); assay type: in vivo, guinea pig (male hartley guinea pigs); conditions: AUC of airway resistance change 4-8 hours after challenge
From the text: as §2, §3, §4, §5, §6, §1, §7, §8

[4] = 0.5 mg/kg i.v., 1 hour before challenge
[5] = 0.2 mg/kg i.v., 1 hour before and 3 hours after challenge
[6] = 0.5 mg/kg i.v., 1 hour before and 3 hours after challenge
[7] = positive control, 10 mg/kg orally, 2 and 16 hours before challenge

Structure (SMILES) | inhibition (%) of PCA reaction [1, 4] [%] | immediate type asthma inhibition % [2, 5] [%] | immediate type asthma inhibition % [2, 6] [%] | delayed type asthma inhibition (%) [3, 5] [%] | delayed type asthma inhibition (%) [3, 6] [%] | other results
CCCCCCCCOc1c(O[C@@H]2O[C@H](C(=O)O)[C@@H](O)[C@H](O)[C@H]2O)c2ccc(NC(=O)/C=C/c3cc(OC)c(O[C@@H]4O[C@H](C(=O)O)[C@@H](O)[C@H](O)[C@H]4O)c(OC)c3)cc2n(C)c1=O [Compound 14] | 54 | 29 | 37 | 64 | 73 | 
CCCCCCCCOc1c(O)c2ccc(NC(=O)/C=C/c3cc(OC)c(O[C@@H]4O[C@H](C(=O)O)[C@@H](O)[C@H](O)[C@H]4O)c(OC)c3)cc2n(C)c1=O [Compound 15, 7-[3,5-dimethoxy-4-(β-D-glucuropyranosyloxy)cinnamoyl]amino-3-octyloxy-4-hydroxy-1-methyl-2(1H)-quinolinone] | 42 |  |  |  |  | 
CCCCCCCCOc1c(O[C@@H]2O[C@H](C(=O)O)[C@@H](O)[C@H](O)[C@H]2O)c2ccc(NC(=O)/C=C/c3cc(OC)c(O)c(OC)c3)cc2n(C)c1=O [Compound 16, 7-(3,5-dimethoxy-4-hydroxycinnamoyl)amino-3-octyloxy-4-(β-D-glcuropyranosyloxy)-1-methyl-2(1H)-quinolinone] | 41 | 22 | 26 | 42 | 51 | 
CCCCCCCCOc1c(O[C@@H]2O[C@H](CO)[C@@H](O)[C@H](O)[C@H]2O)c2ccc(NC(=O)/C=C/c3cc(OC)c(O[C@@H]4O[C@H](CO)[C@@H](O)[C@H](O)[C@H]4O)c(OC)c3)cc2n(C)c1=O [Compound 20, 7-[3,5-dimethoxy-4-(β-D-glucopyranosyloxy)cinnamoyl]amino-3-octyloxy-4-(β-D-glucopyranosyloxy)-1-methyl-2(1H)-quinolinone] | 49 | 27 | 38 | 57 | 61 | 
CCCCCCCCOc1c(O)c2ccc(NC(=O)/C=C/c3cc(OC)c(O[C@@H]4O[C@H](CO)[C@@H](O)[C@H](O)[C@H]4O)c(OC)c3)cc2n(C)c1=O [Compound 21, 7-[3,5-dimethoxy-4-(β-D-glucopyranosyloxy)cinnamoyl]amino-3-octyloxy-4-hydroxy-1-methyl-2(1H)-quinolinone] | 46 |  |  |  |  | 
CCCCCCCCOc1c(O[C@@H]2O[C@H](CO)[C@@H](O)[C@H](O)[C@H]2O)c2ccc(NC(=O)/C=C/c3cc(OC)c(O)c(OC)c3)cc2n(C)c1=O [Compound 22, 7-(3,5-dimethoxy-4-hydroxycinnamoyl)amino-3-octyloxy-4-(β-D-glucopyranosyloxy)-1-methyl-2(1H)-quinolinone] | 42 |  |  |  |  | 
CCCCCCCCOc1c(O[C@@H]2O[C@H](CO)[C@H](O)[C@H](O)[C@H]2O)c2ccc(NC(=O)/C=C/c3cc(OC)c(O[C@@H]4O[C@H](CO)[C@H](O)[C@H](O)[C@H]4O)c(OC)c3)cc2n(C)c1=O [Compound 26, 7-[3,5-dimethoxy-4-(β-D-galactopyranosyloxy)cinnamoyl]amino-3-octyloxy-4-(β-D-galactopyranosyloxy)-1-methyl-2(1H)-quinolinone] | 50 | 25 | 37 | 52 | 63 | 
CCCCCCCCOc1c(O)c2ccc(NC(=O)/C=C/c3cc(OC)c(O[C@@H]4O[C@H](CO)[C@H](O)[C@H](O)[C@H]4O)c(OC)c3)cc2n(C)c1=O [Compound 27, 7-[3,5-dimethoxy-4-(β-D-galactopyranosyloxy)cinnamoyl]amino-3-octyloxy-4-hydroxy-1-methyl-2(1H)-quinolinone] | 46 |  |  |  |  | 
CCCCCCCCOc1c(O[C@@H]2O[C@H](CO)[C@H](O)[C@H](O)[C@H]2O)c2ccc(NC(=O)/C=C/c3cc(OC)c(O)c(OC)c3)cc2n(C)c1=O [Compound 28, 7-(3,5-dimethoxy-4-hydroxycinnamoyl)amino-3-octyloxy-4-(β-D-galactopyranosyloxy)-1-methyl-2(1H)-quinolinone] | 43 |  |  |  |  | 
CCCCCCCCOc1c(O[C@H]2O[C@H](CO)[C@@H](O)[C@H](O)[C@@H]2O)c2ccc(NC(=O)/C=C/c3cc(OC)c(O[C@H]4O[C@H](CO)[C@@H](O)[C@H](O)[C@@H]4O)c(OC)c3)cc2n(C)c1=O [Compound 32, 7-[3,5-dimethoxy-4-(α-D-mannopyranosyloxy)cinnamoyl]amino-3-octyloxy-4-(α-D-mannopyranosyloxy)-1-methyl-2(1H)-quinolinone] | 45 | 26 | 34 | 49 | 57 | 
CCCCCCCCOc1c(O)c2ccc(NC(=O)/C=C/c3cc(OC)c(O[C@H]4O[C@H](CO)[C@@H](O)[C@H](O)[C@@H]4O)c(OC)c3)cc2n(C)c1=O [Compound 33, 7-[3,5-dimethoxy-4-(α-D-mannopyranosyloxy)cinnamoyl]amino-3-octyloxy-4-hydroxy-1-methyl-2(1H)-quinolinone] | 40 |  |  |  |  | 
CCCCCCCCOc1c(O[C@H]2O[C@H](CO)[C@@H](O)[C@H](O)[C@@H]2O)c2ccc(NC(=O)/C=C/c3cc(OC)c(O)c(OC)c3)cc2n(C)c1=O [Compound 34, 7-(3,5-dimethoxy-4-hydroxycinnamoyl)amino-3-octyloxy-4-(α-D-mannopyranosyloxy)-1-methyl-2(1H)-quinolinone] | 42 |  |  |  |  | 
C[C@]12C=CC(=O)C=C1CC[C@@H]1[C@@H]2[C@@H](O)C[C@@]2(C)[C@H]1CC[C@]2(O)C(=O)CO [Prednisolone, reference compound] |  |  |  |  |  | immediate type asthma inhibition % [2, 7]: 27%; delayed type asthma inhibition (%) [3, 7]: 69%
COc1ccc(/C=C/C(=O)Nc2ccccc2C(=O)O)cc1OC [Tranilast, reference compound] |  |  |  |  |  | inhibition (%) of PCA reaction ([1]; positive control, 100 mg/kg orally): 52%
